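The compound was tested at five concentrations on cells cultured in 96-well plates, with a 48-hour exposure period. Abbreviation: GI50, concentration required for 50% inhibition of growth.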 Calls of active or inactive are those of the source. Cut-off read from the data, not from the text of the source: active = GI50 up to about 1.1 µM and inactive = higher.
Assays:
Test in all cases: NCI-60 cell line screen, 48 h
A498 = test system: A498
A549 = test system: A549
BT-549 = test system: BT-549
CAKI-1 = test system: CAKI-1
CCRF-CEM = test system: CCRF-CEM
COLO 205 = test system: COLO 205
DU-145 = test system: DU-145
EKVX = test system: EKVX
HCC 2998 = test system: HCC 2998
HCT-116 = test system: HCT-116
HCT-15 = test system: HCT-15
HL-60 = test system: HL-60
HOP-62 = test system: HOP-62
HOP-92 = test system: HOP-92
HT-29 = test system: HT-29
Hs-578T = test system: Hs-578T
IGROV-1 = test system: IGROV-1
K562 = test system: K562
LOX IMVI = test system: LOX IMVI
M14 = test system: M14
MCF7 = test system: MCF7
MDA-MB-231 = test system: MDA-MB-231
MDA-MB-435 = test system: MDA-MB-435
MDA-N = test system: MDA-N
MOLT-4 = test system: MOLT-4
Malme-3M = test system: Malme-3M
NCI-H226 = test system: NCI-H226
NCI-H23 = test system: NCI-H23
NCI-H460 = test system: NCI-H460
NCI/ADR-RES = test system: NCI/ADR-RES
OVCAR-3 = test system: OVCAR-3
OVCAR-4 = test system: OVCAR-4
OVCAR-5 = test system: OVCAR-5
OVCAR-8 = test system: OVCAR-8
PC-3 = test system: PC-3
RXF 393 = test system: RXF 393
SF-268 = test system: SF-268
SF-295 = test system: SF-295
SF-539 = test system: SF-539
SK-MEL-28 = test system: SK-MEL-28
SK-MEL-2 = test system: SK-MEL-2
SK-MEL-5 = test system: SK-MEL-5
SK-OV-3 = test system: SK-OV-3
SN12C = test system: SN12C
SNB-75 = test system: SNB-75
SR = test system: SR
SW-620 = test system: SW-620
T47D = test system: T47D
TK-10 = test system: TK-10
U-251 = test system: U-251
UACC-257 = test system: UACC-257
UACC-62 = test system: UACC-62
UO-31 = test system: UO-31
786-0 = test system: 786-0
ACHN = test system: ACHN
KM12 = test system: KM12
NCI-H522 = test system: NCI-H522
RPMI-8226 = test system: RPMI-8226
SNB-19 = test system: SNB-19

CCN1CCC(O)(/C=C/c2ccccc2C)C(C(=O)/C=C/c2ccccc2C)C1 (stereo unspecified)
GI50 (A498): 1.91 µM (inactive) | GI50 (A549): 3.1 µM (inactive) | GI50 (BT-549): 2.84 µM (inactive) | GI50 (CAKI-1): 1.82 µM (inactive) | GI50 (CCRF-CEM): 1.85 µM (inactive) | GI50 (COLO 205): 1.64 µM (inactive) | GI50 (DU-145): 1.79 µM (inactive) | GI50 (EKVX): 4.06 µM (inactive) | GI50 (HCC 2998): 1.31 µM (inactive) | GI50 (HCT-116): 1.78 µM (inactive) | GI50 (HCT-15): 1.56 µM | GI50 (HL-60): 2.01 µM (inactive) | GI50 (HOP-62): 1.94 µM (inactive) | GI50 (HOP-92): 1.34 µM (inactive) | GI50 (HT-29): 2.63 µM (inactive) | GI50 (Hs-578T): 3.76 µM (inactive) | GI50 (IGROV-1): 3.62 µM (inactive) | GI50 (K562): 3.07 µM (inactive) | GI50 (LOX IMVI): 1.68 µM (inactive) | GI50 (M14): 2.04 µM (inactive) | GI50 (MCF7): 3.15 µM (inactive) | GI50 (MDA-MB-231): 2.55 µM (inactive) | GI50 (MDA-MB-435): 2.38 µM (inactive) | GI50 (MDA-N): 2.67 µM (inactive) | GI50 (MOLT-4): 2.38 µM (inactive) | GI50 (Malme-3M): 4.08 µM (inactive) | GI50 (NCI-H226): 3.79 µM (inactive) | GI50 (NCI-H23): 1.8 µM (inactive) | GI50 (NCI-H460): 1.53 µM (inactive) | GI50 (NCI/ADR-RES): 3.65 µM (inactive) | GI50 (OVCAR-3): 2.25 µM (inactive) | GI50 (OVCAR-4): 3.67 µM (inactive) | GI50 (OVCAR-5): 1.97 µM (inactive) | GI50 (OVCAR-8): 2.71 µM (inactive) | GI50 (PC-3): 1.93 µM (inactive) | GI50 (RXF 393): 1.92 µM (inactive) | GI50 (SF-268): 3.87 µM (inactive) | GI50 (SF-295): 2.34 µM (inactive) | GI50 (SF-539): 2.31 µM (inactive) | GI50 (SK-MEL-28): 2.39 µM (inactive) | GI50 (SK-MEL-2): 2.33 µM (inactive) | GI50 (SK-MEL-5): 1.56 µM (inactive) | GI50 (SK-OV-3): 6.14 µM (inactive) | GI50 (SN12C): 2.18 µM (inactive) | GI50 (SNB-75): 4.92 µM (inactive) | GI50 (SR): 2.72 µM (inactive) | GI50 (SW-620): 2.74 µM (inactive) | GI50 (T47D): 1.85 µM (inactive) | GI50 (TK-10): 2.94 µM (inactive) | GI50 (U-251): 2.34 µM (inactive) | GI50 (UACC-257): 2.9 µM (inactive) | GI50 (UACC-62): 2.97 µM (inactive) | GI50 (UO-31): 1.63 µM (inactive)

CC(C)(C)[Si](C)(C)OC1CCOC1(O)c1ccccn1 (stereo unspecified)
GI50 (786-0): > 100 µM (inactive) | GI50 (A498): > 100 µM (inactive) | GI50 (A549): > 100 µM (inactive) | GI50 (ACHN): > 100 µM (inactive) | GI50 (BT-549): > 100 µM (inactive) | GI50 (CAKI-1): > 100 µM (inactive) | GI50 (CCRF-CEM): 88.3 µM (inactive) | GI50 (COLO 205): > 100 µM (inactive) | GI50 (DU-145): > 100 µM (inactive) | GI50 (EKVX): > 100 µM (inactive) | GI50 (HCC 2998): > 100 µM (inactive) | GI50 (HCT-116): > 100 µM (inactive) | GI50 (HCT-15): > 100 µM | GI50 (HL-60): 32 µM (inactive) | GI50 (HOP-62): > 100 µM (inactive) | GI50 (HOP-92): > 100 µM (inactive) | GI50 (HT-29): > 100 µM (inactive) | GI50 (Hs-578T): > 100 µM (inactive) | GI50 (IGROV-1): > 100 µM (inactive) | GI50 (K562): 57.9 µM (inactive) | GI50 (KM12): > 100 µM (inactive) | GI50 (LOX IMVI): > 100 µM (inactive) | GI50 (M14): > 100 µM (inactive) | GI50 (MCF7): > 100 µM (inactive) | GI50 (MDA-MB-231): > 100 µM (inactive) | GI50 (MDA-MB-435): > 100 µM (inactive) | GI50 (MDA-N): > 100 µM (inactive) | GI50 (MOLT-4): 57.3 µM (inactive) | GI50 (Malme-3M): > 100 µM (inactive) | GI50 (NCI-H226): > 100 µM (inactive) | GI50 (NCI-H23): > 100 µM (inactive) | GI50 (NCI-H460): > 100 µM (inactive) | GI50 (NCI-H522): > 100 µM (inactive) | GI50 (NCI/ADR-RES): > 100 µM (inactive) | GI50 (OVCAR-3): > 100 µM (inactive) | GI50 (OVCAR-4): > 100 µM (inactive) | GI50 (OVCAR-5): > 100 µM (inactive) | GI50 (OVCAR-8): > 100 µM (inactive) | GI50 (PC-3): > 100 µM (inactive) | GI50 (RPMI-8226): 53.7 µM (inactive) | GI50 (RXF 393): > 100 µM (inactive) | GI50 (SF-268): > 100 µM (inactive) | GI50 (SF-295): > 100 µM (inactive) | GI50 (SF-539): > 100 µM (inactive) | GI50 (SK-MEL-28): > 100 µM (inactive) | GI50 (SK-MEL-2): > 100 µM (inactive) | GI50 (SK-MEL-5): > 100 µM (inactive) | GI50 (SK-OV-3): > 100 µM (inactive) | GI50 (SN12C): > 100 µM (inactive) | GI50 (SNB-19): > 100 µM (inactive) | GI50 (SNB-75): > 100 µM (inactive) | GI50 (SW-620): > 100 µM (inactive) | GI50 (T47D): > 100 µM (inactive) | GI50 (TK-10): > 100 µM (inactive) | GI50 (U-251): 39.6 µM (inactive) | GI50 (UACC-257): > 100 µM (inactive) | GI50 (UACC-62): > 100 µM (inactive) | GI50 (UO-31): > 100 µM (inactive)
